# Laboratory results published in patent publication US11654199B2 (BOLT BIOTHERAPEUTICS, INC., priority 2019, dated 2023).
# pEC50: −log10 of the molar value.
# How the values were obtained:
# human TLR7 = target: T1, human TLR7 (Homo sapiens, UniProt Q9NYK1); assay: HEK293 NFKB reporter assay, human TLR7; type: cell-based; conditions: HEK293 NFKB reporter cells expressing human TLR7; read-out: HEK293 hTLR7 EC50
# T1 construct: host or cells: HEK293 reporter cells
# T1 sequence (Q9NYK1 27-1049): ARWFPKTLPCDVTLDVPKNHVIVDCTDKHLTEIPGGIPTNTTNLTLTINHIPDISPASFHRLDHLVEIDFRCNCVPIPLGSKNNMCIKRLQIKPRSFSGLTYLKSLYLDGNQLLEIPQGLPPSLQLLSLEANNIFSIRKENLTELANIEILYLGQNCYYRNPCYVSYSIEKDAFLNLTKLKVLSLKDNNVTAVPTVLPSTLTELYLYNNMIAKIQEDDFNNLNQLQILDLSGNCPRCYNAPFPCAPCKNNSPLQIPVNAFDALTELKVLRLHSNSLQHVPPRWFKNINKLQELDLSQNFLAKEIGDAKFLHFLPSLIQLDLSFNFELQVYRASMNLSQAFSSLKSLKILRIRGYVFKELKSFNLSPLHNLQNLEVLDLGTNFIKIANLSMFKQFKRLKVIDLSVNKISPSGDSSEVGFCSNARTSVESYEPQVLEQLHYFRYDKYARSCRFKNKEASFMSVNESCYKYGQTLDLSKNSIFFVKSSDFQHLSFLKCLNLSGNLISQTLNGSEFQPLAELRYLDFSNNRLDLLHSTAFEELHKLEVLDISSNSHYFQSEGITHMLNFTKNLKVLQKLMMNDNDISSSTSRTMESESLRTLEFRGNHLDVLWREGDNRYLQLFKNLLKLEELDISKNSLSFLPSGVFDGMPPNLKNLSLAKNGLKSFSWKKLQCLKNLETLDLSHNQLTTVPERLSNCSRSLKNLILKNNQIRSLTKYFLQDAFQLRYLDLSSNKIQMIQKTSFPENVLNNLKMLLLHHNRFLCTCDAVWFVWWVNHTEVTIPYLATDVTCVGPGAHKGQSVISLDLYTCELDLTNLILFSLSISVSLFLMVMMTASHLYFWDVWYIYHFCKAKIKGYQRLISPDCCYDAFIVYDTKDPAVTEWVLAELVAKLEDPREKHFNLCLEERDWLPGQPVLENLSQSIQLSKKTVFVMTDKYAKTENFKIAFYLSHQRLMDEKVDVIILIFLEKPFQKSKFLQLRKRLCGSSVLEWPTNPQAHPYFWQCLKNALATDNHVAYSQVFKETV
# Procedure: (§1) Each compound was synthesized, purified, and characterized by mass spectrometry and shown to have the mass indicated. Additional experimental procedures are found in the Examples. Activity against HEK293 NFKB reporter cells expressing human TLR7 or human TLR8 was measured according to Example 202.
# (§2) HEK293 reporter cells expressing human TLR7 or human TLR8 were purchased from Invivogen and vendor protocols were followed for cellular propagation and experimentation. Briefly, cells were grown to 80-85% confluence at 5% CO2 in DMEM supplemented with 10% FBS, Zeocin, and Blasticidin. Cells were then seeded in 96-well flat plates at 4×10^4 cells/well with substrate containing HEK detection medium and immunostimulatory molecules. Activity was measured using a plate reader at 620-655 nm wavelength.
# human TLR8 = target: T2, human TLR8 (Homo sapiens, UniProt Q9NR97); assay: HEK293 NFKB reporter assay, human TLR8; type: cell-based; conditions: HEK293 NFKB reporter cells expressing human TLR8; read-out: HEK293 hTLR8 EC50
# T2 construct: host or cells: HEK293 reporter cells
# T2 sequence (Q9NR97 27-1041): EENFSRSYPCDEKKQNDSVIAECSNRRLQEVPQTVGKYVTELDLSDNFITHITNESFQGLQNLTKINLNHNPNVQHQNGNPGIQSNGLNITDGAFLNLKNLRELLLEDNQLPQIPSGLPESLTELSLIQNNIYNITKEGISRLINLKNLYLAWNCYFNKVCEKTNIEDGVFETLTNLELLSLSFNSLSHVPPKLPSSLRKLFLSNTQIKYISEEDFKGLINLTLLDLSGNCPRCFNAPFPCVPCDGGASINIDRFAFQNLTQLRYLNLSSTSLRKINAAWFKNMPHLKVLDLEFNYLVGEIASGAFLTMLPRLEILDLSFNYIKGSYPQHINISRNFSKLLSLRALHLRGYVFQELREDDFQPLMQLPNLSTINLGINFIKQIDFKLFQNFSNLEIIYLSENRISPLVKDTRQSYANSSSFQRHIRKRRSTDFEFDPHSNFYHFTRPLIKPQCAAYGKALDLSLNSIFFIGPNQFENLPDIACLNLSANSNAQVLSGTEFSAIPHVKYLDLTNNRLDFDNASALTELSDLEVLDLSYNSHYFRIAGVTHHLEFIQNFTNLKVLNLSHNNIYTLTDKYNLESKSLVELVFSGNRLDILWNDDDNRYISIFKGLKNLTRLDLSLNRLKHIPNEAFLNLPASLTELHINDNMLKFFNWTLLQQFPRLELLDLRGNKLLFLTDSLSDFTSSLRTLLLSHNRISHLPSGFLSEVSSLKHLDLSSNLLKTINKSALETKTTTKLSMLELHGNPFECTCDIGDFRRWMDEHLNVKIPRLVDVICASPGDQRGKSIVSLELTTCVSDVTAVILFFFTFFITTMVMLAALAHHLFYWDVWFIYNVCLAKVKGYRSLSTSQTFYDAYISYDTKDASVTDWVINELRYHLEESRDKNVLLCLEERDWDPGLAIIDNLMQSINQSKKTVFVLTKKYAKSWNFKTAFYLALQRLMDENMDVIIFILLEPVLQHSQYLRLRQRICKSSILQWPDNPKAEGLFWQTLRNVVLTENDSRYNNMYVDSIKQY
# Procedure: as §1, §2
Compound,pEC50 (human TLR7),pEC50 (human TLR8)
CCCN(OCC)C(=O)C1=Cc2sc(CN3CCC4(CCNC4)CC3)cc2N=C(N)C1 [TAZ-240],5.37,5.26
CCCN(OCC)C(=O)C1=Cc2sc(CCC3(O)CNC3)cc2N=C(N)C1 [TAZ-200],5.54,5.39
CCCN(Cc1ccc(CNC(=O)OC(C)(C)C)cc1C(F)(F)F)C(=O)C1=Cc2sccc2N=C(N)C1 [TAZ-51],< 5.05,5.25
CCCN(Cc1cnc(CN)c(C(F)(F)F)c1)C(=O)C1=Cc2sccc2N=C(N)C1 [TAZ-104],5.50,5.84
CCCN(CCCNC(=O)OC1CCC1)C(=O)C1=Cc2sc(CC3CN(C(=O)OC(C)(C)C)C3)cc2N=C(N)C1 [TAZ-182],7.00,6.08
CCCN(CC1CCC1)C(=O)C1=Cc2sc(CCCCCN)cc2N=C(N)C1 [TAZ-126],6.02,6.20
CCCN(CCCNC(=O)OC1CCC1)C(=O)C1=Cc2sc(CC3CCN(C(=O)OC(C)(C)C)CC3)cc2N=C(N)C1 [TAZ-177],6.05,5.47
CCCN(CCC)C(=O)C1=Cc2sc(CN)cc2N=C(N)C1 [TAZ-84],5.31,5.86
CCCN(OCCNC(=O)CC(C)(C)C)C(=O)C1=Cc2sc(CCCCCNC(=O)OC(C)(C)C)cc2N=C(N)C1 [TAZ-150],5.70,5.78
NCc1ccc(CN(CCC(F)(F)F)C(=O)C2=Cc3sccc3N=C(N)C2)cc1 [TAZ-77],5.41,7.23
CCCN(OCC)C(=O)C1=Cc2sccc2N=C(N)C1 [TAZ-53],5.44,6.74
CCCN(CCC)C(=O)C1=Cc2sc(CC(=O)OC)cc2N=C(N)C1 [TAZ-134],5.33,5.47
CCCN(Cc1ccc(CCN)cc1)C(=O)C1=Cc2sccc2N=C(N)C1 [TAZ-58],< 5.05,5.89
CCCN(Cc1ccc(CN)nc1C(F)(F)F)C(=O)C1=Cc2sccc2N=C(N)C1 [TAZ-70],5.18,7.12
CCCN(Cc1ccc(CN)c(C(F)(F)F)c1)C(=O)C1=Cc2sccc2N=C(N)C1,6.04,7.46
CCCN(CCC)C(=O)C1=Cc2sc(CN3CCNCC3)cc2N=C(N)C1 [TAZ-44],5.34,6.23
CCCN(CCCNC(=O)OC1CCC1)C(=O)C1=Cc2sc(C#CC3CCNCC3)cc2N=C(N)C1 [TAZ-164],6.32,5.41
CCCN(OC(C)C)C(=O)C1=Cc2sc(CC3CN(C(=O)OC(C)(C)C)C3)cc2N=C(N)C1 [TAZ-249],6.44,6.19
CCCN(CCc1ccc(OC)cc1)C(=O)C1=Cc2sc(CCCCCNC(=O)OC(C)(C)C)cc2N=C(N)C1 [TAZ-106],5.32,< 5.05
CCCN(Cc1ccccc1)C(=O)C1=Cc2sccc2N=C(N)C1 [TAZ-39],< 5.05,< 5.05
CCCN(C(=O)C1=Cc2sc(CCCCCN)cc2N=C(N)C1)C1CC1 [TAZ-122],5.48,5.49
CCCN(Cc1ccc(CN(C)C)c(C(F)(F)F)n1)C(=O)C1=Cc2sc(CCCCCN)cc2N=C(N)C1 [TAZ-145],5.23,5.40

Compound,pEC50 (human TLR7),pEC50 (human TLR8)
CCCN(OCC)C(=O)C1=Cc2sc(CCCN3CCNCC3)cc2N=C(N)C1 [TAZ-244],5.61,6.84
CCCN(CC12CC(CN)(C1)C2)C(=O)C1=Cc2sccc2N=C(N)C1 [TAZ-41],< 5.05,< 5.05
CCCN(CCC)C(=O)C1=Cc2sc(S(=O)(=O)NCCCN)cc2N=C(N)C1 [TAZ-56],< 5.05,< 5.05
CCCN(OCC)C(=O)C1=Cc2sc(CN3CC[C@@H]4[C@H](C3)CN4C(=O)OC(C)(C)C)cc2N=C(N)C1 [TAZ-228],5.42,5.49
CCCN(Cc1ccc(CN2CCN(C(=O)OC(C)(C)C)CC2)cc1)C(=O)C1=Cc2sccc2N=C(N)C1 [TAZ-34],< 5.05,6.47
CCCN(OCC)C(=O)C1=Cc2sc(CC3CCNC3)cc2N=C(N)C1 (centres unmarked) [TAZ-236],5.65,6.37
"CCCN(OCC)C(=O)C1=Cc2sc(CC3CNC3)cc2N=C(N)C1 [TAZ-183, 5-amino-2-(azetidin-3-ylmethyl)-N-ethoxy-N-propyl-6H-thieno[3,2-b]azepine-7-carboxamide]",5.45,6.31
CCCN(OCC)C(=O)C1=Cc2sc(CN3CCC[C@@H](C(=O)OC)C3)cc2N=C(N)C1 [TAZ-223],5.42,5.50
CCCN(CCC)C(=O)C1=Cc2sc(CO)cc2N=C(N)C1 [TAZ-99],< 5.05,5.44
CCCN(CCC(F)(F)F)C(=O)C1=Cc2sccc2N=C(N)C1 [TAZ-64],5.30,5.56
CCCN(CCCNC(=O)OC1CCC1)C(=O)C1=Cc2sc(CN3Cc4ccc(NC(=O)CCN)cc4C3)cc2N=C(N)C1 [TAZ-189],5.24,5.47
CCCN(CCC)C(=O)C1=Cc2sc(CN3CCN(C)CC3)cc2N=C(N)C1 [TAZ-129],5.25,6.07
CCCN(OCC)C(=O)C1=Cc2sc(-c3cn[nH]c3)cc2N=C(N)C1 [TAZ-221],5.21,5.17
CCCN(OCC)C(=O)C1=Cc2sc(CN3CCNC(=O)C3)cc2N=C(N)C1 [TAZ-224],5.47,5.56
CCCN(OCC)C(=O)C1=Cc2sc(CN3CC(C(=O)OC(C)(C)C)C3)cc2N=C(N)C1 [TAZ-212],5.90,5.59
CCCN(CCCNC(=O)NCC)C(=O)C1=Cc2sc(CCCCCNC(=O)OC(C)(C)C)cc2N=C(N)C1 [TAZ-170],6.55,5.47
CCCN(OCC)C(=O)C1=Cc2sc(CCCCCN)cc2N=C(N)C1 [TAZ-76],5.46,5.85
CCCN(CCC)C(=O)C1=Cc2sc(COCCNC(=O)OC(C)(C)C)cc2N=C(N)C1 [TAZ-80],5.40,5.42
CCCN(OCC)C(=O)C1=Cc2sc(CC3CN(C(=O)OC(C)(C)C)C3)cc2N=C(N)C1 [TAZ-184],6.04,6.03
CCCN(OCC)C(=O)C1=Cc2sc(CCCCCNC(=O)OC(C)(C)C)cc2N=C(N)C1 [TAZ-75],5.29,5.69
CCCN(CCc1ccc(OC)cc1)C(=O)C1=Cc2sc(CCCCCN)cc2N=C(N)C1 [TAZ-107],5.45,5.16
